Legend:
[1] = tested on: LOVO: a human colon cancer cell line; assay: MTT analytical method, LOVO cells; assay type: cell-based; conditions: 72 h
Description: (§1) MTT analytical method was used to test the prodrugs for various tumor cells.
(§2) • 1) Cell lines: NCI-H460, A549, LOVO, HT-29, MDA-MB-231, SGC7901, HepG2 or BEL-7402 cell lines. Culture: adherent culturing in D-MEM (Hyclone, Inc.) containing 10% fetal calf serum. The initial cell concentration was about 3×10^5 /mL. The cell was passaged by 1:3 dilution in every 2-3 days. On the day before the test, the cell was passaged by 1:2 dilution, the cell concentration for the test was 5-10×10^5 /mL. • 2) Dissolution and dilution of compounds: according to the weight and molecular weight of the drugs provided, 100-200 μL of DMSO was added. Then normal saline was added to make the final diluted concentration of the drugs be 5 mM (Note that the final concentration of DMSO should not be more than 10%). • 3) D-MEM or RPMI 1640 cell culture medium, Gibco, Inc. • 4) Fetal calf serum Hyclone, Inc. • 5) Cell dissociation buffer, 0.25% Trypsin+0.02% EDTA. • 6) MTT solution, MTT Powder (Sigma) were dissolved in PBS buffer solution to make a solution of 5 mg/mL. The solution was filtered by a 0.22 μm micropore membrane and stored at −20° C. • 7) PBS buffer solution. • 8) 10% acidified SDS, 0.01N HCl. • 9) Centrifuge tubes, haustorial tubes etc. (BD, Inc.); 96-well plates (Costatr, Inc.) Procedures: • 1) Cell inoculation: Cells grown for 24 hours after passage, which cells were in good growth state, were used. The cells were harvested by the routine method. The cell concentration was adjust with a fresh culture solution to 2×10^5/mL (for adherent cells)-3×10^5/mL (for suspension cells). The adherent cells were inoculated at 100 μL/well and then cultivated in an incubator with 5% CO2 at 37° C. for 24 h. Thereafter the used culture solution was removed and 95 μL/well of fresh culture solution was added. The suspension cells were inoculated at 95 μL/well directly. • 2) Drugs treatment: 9 concentration grades were designed for every drug, and every concentration had 3 wells. The control group had 5 wells. The control group was tested simultaneously in each test. The final concentrations of a drug added were […], and 5 μL normal saline was added to the control group. • 3) Cell culture and detection: the cells were cultured in an incubator with 5% CO2 at 37° C. for 72 h after the drug was added, then 10 μL MTT was added to each well and the culture was continued for 4 h. 100 μL of 10% SDS (containing 0.01N HCl) was added to each well. After 24 h, the absorbance (A) of each well was determined by Bio-rad 680 ELISA with the detection wavelength of 570 nm and the reference wavelength of 630 nm. Calculation:
(§3) First, the absorbance (A) of each well was averaged (removing any data with big difference). […] A0 was the mean absorbance of the control wells. The effect curve of the drug concentration was drawn using EXCEL software and the drug concentration for 50% cell survival was calculated according to an appropriate computing methods.

[2] = tested on: HT29: a human colon cancer cell line; assay: MTT analytical method, HT29 cells; assay type: cell-based; conditions: HT-29, 72 h
Description: as §1, §2, §3

[3] = tested on: HT29 tumor transplanted in nude mice; assay: HT29 tumor transplanted in nude mice, intravenous administration; conditions: for weight loss rate: 20 mg/kg i.v., d17, HT29 nude mice; for toxicity judged by body weight loss, in words: mouse, in vivo, iv; for inhibitory rate (relative tumor volume) at the end of the experiments: HT29
Method: (§4) 1. […] The drugs were packaged and stored at −20° C.
(§5) The treatment starting day was the first day (d0). […] The tumor tissues were removed and weighed. The inhibition rate of tumor growth was calculated.

[4] = tested on: NCI-H460 tumor transplanted in nude mice; assay: NCI-H460 tumor transplanted in nude mice, intravenous administration; conditions: for weight loss rate: NCI-H460 nude mice; for effect on NCI-H460 tumor (growth curve and tumor weight), in words: i.v. every three days x4, SL-01 5, 10, 20 mg/Kg, GEM 10 mg/Kg
Method: The highest concentrations of both were 10 mg/mL and 240 mg/mL, respectively. […] Assuming that each mouse weighed 20 g and 0.1 mL of drug solution was administered, then the dosage of SL-01 at 5, 10 or 20 mg/kg needed drug concentrations of 1, 2, 4 mg/mL, respectively.
Cell lines and cultivation: the NCI-H460 lung cancer cell line, the HepG2 liver cancer cell line, or the HT29 colon cancer cell line were cultured by adherent culturing in D-MEM (Gibco, Inc.) containing 10% fetal calf serum. These cells were passaged once by a dilution of 1:3 in every 2-3 days. The cells were collected when they were passaged to grow into 25 of 10 cm culture dishes.
3.1 The establishment of a model of transplanted tumors in nude mice: Well-grown NCI-H460 cells, HT29 cells or HepG2 cells were collected (25 of 10 cm culture dishes). The cell concentration was adjusted to 1.5×10^7/mL with serum-free DMEM. 200 μL cell suspension was inoculated into the right back of 6 weeks old male BALB/C nude mice by subcutaneous injection using a 1 mL syringe.
The treatment starting day was the first day (d0). The corresponding drugs were injected intravenously to the tail vein every three days. The administration volume to each mouse was adjusted according to its body weight. A total of four administrations (d0, d3, d6, d9) were applied. The long and short tumor pathlines were measured with a slide caliper at the beginning of the administration and every 3 days thereafter. The tumor volume V was calculated (V=½ab^2, a is the tumor long pathline, b is the tumor short pathline). The growth curve was drawn with the time as the horizontal axis, and tumor volume as the vertical axis. The experiment was terminated when the tumor size of the control group reached 3000 mm^3. Blood samples were taken from the eyeball and thereafter the nude mice were euthanized by back neck vertebra cervical dislocation. The tumor tissues were removed and weighed. The inhibition rate of tumor growth was calculated.

[5] = In vitro stability in simulated intestinal fluid (HPLC); assay type: physicochemical; conditions: for stability in simulated intestinal fluid (in words): 0-24 h; for Degrade % / HPLC peak area of drug: simulated intestinal fluid
[6] = tested on: HepG2: a human liver cancer cell line; assay: MTT analytical method, HepG2 cells; assay type: cell-based; conditions: 72 h
Description: as §1, §2, §3

[7] = Stability in human blood plasma (HPLC); assay type: in vitro ADME; conditions: for stability in blood plasma (in words): 0-12 h; for chromatography peak area of drug / Degrade %: plasma
Method: Isopropanol (1 mL) was then added into the blood sample and vortexed for 30 s and kept still for 5 min. 2.5 ml of EtOAc was added and votexed and centrifuged at 4000 rpm for 15 minutes. The supernatant was taken and dried by blowing in nitrogen. The dried sample was redissolved in 200 μL HPLC mobile phase solution. 20 μL sample was loaded to the HPLC.
The samples were processed using the standard method.

[8] = tested on: A549: a human lung cancer cell line; assay: MTT analytical method, A549 cells; assay type: cell-based; conditions: 72 h
Description: as §1, §2, §3

[9] = tested on: SGC7901: a human gastric cancer line; assay: MTT analytical method, SGC7901 cells; assay type: cell-based; conditions: SGC-7901, 72 h
Description: as §1, §2, §3

[10] = tested on: HepG2 tumor transplanted in nude mice; assay: HepG2 tumor transplanted in nude mice, intravenous administration; assay type: in vivo, BALB/C nude mice; conditions: for weight loss rate: HepG2 nude mice; for effect on growth of HepG2 tumor (growth curve and tumor weight), in words: i.v., SL-01 10, 20, 40 mg/kg, Gem group
Method: as §4, §5
4.2 The low, middle and high dosage of SL-01 in the treatment for HepG2 liver cancer cell line tumor growth transplanted in nude mice are 10, 20 and 40 mg/kg, respectively.

[11] = Dissolution in water (description of material); assay type: physicochemical; conditions: white powder
[12] = Physiological stability in PBS (pH=7.4) (HPLC); assay type: physicochemical; conditions: for stability in PBS (pH=7.4) (in words): 0-24 h; for HPLC peak area of drug: PBS (pH = 7.4)

## Nc1ccn([C@@H]2O[C@H](CO)[C@@H](O)C2(F)F)c(=O)n1 [Gemcitabine, gemcitabine, reference compound]
[1]
  IC50: < 1 µM
[2]
  IC50: 7 µM
[3]
  weight loss rate: 4%
  toxicity judged by body weight loss, in words: neither the gemcitabine positive control group nor SL-01 has obvious toxicity
[4]; gemcitabine positive control 10 mg/Kg i.v.
  weight loss rate: 14%
[4]
  effect on NCI-H460 tumor (growth curve and tumor weight), in words: inhibitory effect
[5]
  stability in simulated intestinal fluid (in words): degraded
[5]; 0 min
  Degrade %: 0%
  HPLC peak area of drug: 643704.938
[5]; 1 h
  Degrade %: 27.67%
  HPLC peak area of drug: 465528.594
[5]; 2 h
  Degrade %: 36.2%
  HPLC peak area of drug: 410685.313
[5]; 4 h
  Degrade %: 59.98%
  HPLC peak area of drug: 257604.125
[5]; 6 h
  Degrade %: 69.37%
  HPLC peak area of drug: 197106.406
[5]; 8 h
  Degrade %: 76.72%
  HPLC peak area of drug: 149816.906
[5]; 12 h
  Degrade %: 98.46%
  HPLC peak area of drug: 9873.897
[5]; 24 h
  Degrade %: 99.13%
  HPLC peak area of drug: 5571.352
[6]
  IC50: < 1 µM
[7]
  stability in blood plasma (in words): stable
[7]; 0 min
  chromatography peak area of drug: 562562.938
[7]; 1 h
  chromatography peak area of drug: 592859.625
[7]; 2 h
  chromatography peak area of drug: 466418.094
[7]; 4 h
  chromatography peak area of drug: 483743.594
[7]; 6 h
  chromatography peak area of drug: 552648.313
[7]; 8 h
  chromatography peak area of drug: 540059.125
[7]; 12 h
  chromatography peak area of drug: 544300.688
[8]
  IC50: < 2 µM
[9]
  IC50: > 16 µM
[10]; gemcitabine positive control
  weight loss rate: 9%
[10]
  effect on growth of HepG2 tumor (growth curve and tumor weight), in words: neither SL-01 nor gemcitabine has shown an obvious inhibitory effect
[11]
  solubility in water, in words: can be easily dissolved in water
[12]
  stability in PBS (pH=7.4) (in words): stable
[12]; 0 min
  HPLC peak area of drug: 657583.875
[12]; 1 h
  HPLC peak area of drug: 646932.375
[12]; 2 h
  HPLC peak area of drug: 651326.375
[12]; 4 h
  HPLC peak area of drug: 647537.813
[12]; 6 h
  HPLC peak area of drug: 618724
[12]; 8 h
  HPLC peak area of drug: 635026.875
[12]; 12 h
  HPLC peak area of drug: 600425.125
[12]; 24 h
  HPLC peak area of drug: 603669.813

## CCCCCCCCCCCCOC(=O)c1nccnc1C(=O)Nc1ccn([C@@H]2O[C@H](CO)[C@@H](O)C2(F)F)c(=O)n1 [Compound 4, Dodecyl-3-((1-((2R,4R,5R)-3,3-difluoro-4-hydroxy-5-(hydroxymethyl)-tetrahydrofuran-2-yl)-2-oxo-1,2-dihydropyrimidin-4-yl)carbamoyl)pyrazine-2-carboxylate]
[1]
  IC50: 16 µM
[2]
  IC50: 2 µM
[3]; 20 mg/kg i.v. (Gem group; SL01 middle dosage group)
  inhibitory rate (relative tumor volume) at the end of the experiments: 23%
[3]
  weight loss rate: 8%
  toxicity judged by body weight loss, in words: neither the gemcitabine positive control group nor SL-01 has obvious toxicity
[3]; SL01 high dosage group 40 mg/kg i.v.
  inhibitory rate (relative tumor volume) at the end of the experiments: 7%
[4]; SL-01 high dose group 20 mg/Kg i.v.
  weight loss rate: 7%
[4]
  effect on NCI-H460 tumor (growth curve and tumor weight), in words: inhibitory effect
[5]
  stability in simulated intestinal fluid (in words): stable
[5]; 0 min
  HPLC peak area of drug: 288987.906
[5]; 1 h
  HPLC peak area of drug: 231129.797
[5]; 2 h
  HPLC peak area of drug: 196319.828
[5]; 4 h
  HPLC peak area of drug: 245622.906
[5]; 6 h
  HPLC peak area of drug: 247957.219
[5]; 8 h
  HPLC peak area of drug: 239958.297
[5]; 12 h
  HPLC peak area of drug: 247782.500
[5]; 24 h
  HPLC peak area of drug: 256782.600
[6]
  IC50: 6 µM
[7]
  stability in blood plasma (in words): degradable
[7]; 0 min
  Degrade %: 0%
  chromatography peak area of drug: 336275.344
[7]; 1 h
  Degrade %: 2.77%
  chromatography peak area of drug: 326948.219
[7]; 2 h
  Degrade %: 22.11%
  chromatography peak area of drug: 261917.094
[7]; 4 h
  Degrade %: 46.99%
  chromatography peak area of drug: 178242.781
[7]; 6 h
  Degrade %: 82.31%
  chromatography peak area of drug: 59465.750
[7]; 8 h
  Degrade %: 89.64%
  chromatography peak area of drug: 43894.633
[7]; 12 h
  Degrade %: 96.17%
  chromatography peak area of drug: 12894.514
[8]
  IC50: < 2 µM
[9]
  IC50: > 16 µM
[10]; SL-01 high dosage 40 mg/kg i.v.
  weight loss rate: 3.5%
[10]; SL-01 low dosage 10 mg/kg i.v.
  weight loss rate: 11.6%
[10]; SL-01 middle dosage 20 mg/kg i.v.
  weight loss rate: 14%
[10]
  effect on growth of HepG2 tumor (growth curve and tumor weight), in words: neither SL-01 nor gemcitabine has shown an obvious inhibitory effect
[11]
  solubility in water, in words: cannot be dissolved in water well
[12]
  stability in PBS (pH=7.4) (in words): stable
[12]; 0 min
  HPLC peak area of drug: 399795.688
[12]; 1 h
  HPLC peak area of drug: 379856.688
[12]; 2 h
  HPLC peak area of drug: 397725
[12]; 4 h
  HPLC peak area of drug: 373725.406
[12]; 6 h
  HPLC peak area of drug: 360109.813
[12]; 8 h
  HPLC peak area of drug: 362068.688
[12]; 12 h
  HPLC peak area of drug: 386125.688
[12]; 24 h
  HPLC peak area of drug: 387541.688

From patent publication US8653048B2 (Sanlugen Pharmatech Ltd., priority 2009, dated 2014)
